Among the data in patent US10336748B2, “Methyoxy-substituted pyrrolopyridine modulators of RORC2 and methods of use thereof” (Pfizer Inc., priority 2015, dated 2019) are IC50 values, retold here.

pIC50: −log10 of the molar value.

One experiment concerns human Th17 cells. Put plainly: IL-17 production from human Th17 cells. The experiment is classed as cell-based. The following applies: 144 h; IL-17A in supernatant by ELISA (MSD) after 6 days, human CD4+ T cells, anti-CD3 + anti-CD28 + cytokine cocktail. The procedure: The activity of compound of the invention can be also be determined by an IL-17 production from human Th17 cells assay. In general, this assay measures blockade of IL-17 production, the signature cytokine of T helper 17 (Th17) cells, by compounds. Purified human CD4+ T cells are stimulated with anti-CD3+anti-CD28 and incubated with a cytokine cocktail that induce their differentiation into Th17 in the absence or presence of various concentrations of compound. After 6 days, IL-17A concentration is measured in the cell culture supernatant with an ELISA kit (MSD).
Preparation of human CD4+ T cells. CD4+ T cells were purified from buffy coats from healthy donors (obtained from Massachusetts General Hospital) by negative selection the following procedure: Mixing 25 mL of blood with 1 mL of Rosette Sep CD4+ T cell enrichment cocktail (StemCell Technologies) followed by application of a layer of 14 mL Ficoll Paque Plus (Amersham GE Healthcare) and subsequent centrifugation at 1200 g for 20 min at room temperature. The Ficoll layer was then harvested and washed with phosphate saline buffer containing 2% (v/v) fetal bovine serum and cells were resuspended with RPMI medium containing 10% (v/v) fetal bovine serum and 10% (v/v) DMSO, frozen and kept in LN2 until used.
On the first day of the assay, a vial containing 10^7 CD4+ T cells is thawed rapidly in 37° C. water bath, immediately transferred into 20 mL X-Vivo 15 medium (Lonza), is spun for 6 min at 300×g, the supernatant is discarded, and the resulting pellet is re-suspended at 10^6 cells/mL in […] fresh X-Vivo 15 medium, followed by storage overnight in a tissue culture vessel in a humidified chamber at 37° C. and 5% CO2. Serial dilutions of compounds of the invention are prepared at 10× final concentration in X-Vivo15 medium containing 3% (v/v) DMSO.
On the second day of the assay, a 384-well tissue culture plate was coated with 10 μg/mL anti-hCD3 (eBioscience) at 50 μL/well. After 2 hr at 37° C., the supernatant is discarded and the coated plates are kept in a sterile tissue culture hood.
Cytokine plus anti-CD28 cocktail is prepared by mixing 25 ng/mL hIL-6 (Peprotech), 5 ng/mL hTGFbeta1 (Peprotech), 12.5 ng/mL IL-1beta (Peprotech), 25 ng/mL hIL-21, 25 ng/mL hIL-23 (R&D Systems), and 1 ug/mL anti-hCD28 (eBioscience) in X-Vivo 15 medium. The cytokine plus anti-CD28 cocktail with CD4+ cells is prepared such that the cocktail is diluted 10-fold and cell density is 0.22×10^6/mL. The mixture is incubated 1 hr at 37° C.
90 μL (20,000 cells) dispensed per well in the anti-hCD3 coated plate prepared as noted above.
10 μL 10× compound is added per well (final DMSO=0.3%) from the compound plate that was previously prepared, followed by 6 days of incubation in a tissue culture vessel in a humidified chamber at 37° C. and 5% CO2.
On day six of the assay, production of IL-17A in 10 μL of the supernatant is determined by sandwich ELISA using 384w hIL17 MSD plates following the manufacturer's protocol. Measurement is carried out in a Sector Imager 6000 by the same manufacturer. Signal units from the instrument are converted to pg/mL using a calibration curve with known amounts of IL-17A. IC50 values of test compounds (Table 2) are determined by the non-linear regression analysis of dose response curves.
On the technique in general: An ELISA detects its analyte on a solid surface through an enzyme-linked reagent.

Experiment [1] addresses T1, RORC2 ligand binding domain (6-His-RORC2 LBD) (Homo sapiens, UniProt P51449).
T1 construct: made in house; host or cells: E. coli
T1 sequence (P51449 269-508 limits assumed): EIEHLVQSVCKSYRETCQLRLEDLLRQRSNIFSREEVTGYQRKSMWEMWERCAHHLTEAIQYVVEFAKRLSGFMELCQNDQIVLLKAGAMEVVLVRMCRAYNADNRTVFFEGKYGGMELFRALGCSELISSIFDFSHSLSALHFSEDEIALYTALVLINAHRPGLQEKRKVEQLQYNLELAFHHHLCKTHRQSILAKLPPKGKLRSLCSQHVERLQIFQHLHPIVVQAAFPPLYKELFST
The experiment can be described thus: Co-activator recruitment by TR-FRET. The format is biochemical. The following applies: 6.3 nM RORC2 LBD, 200 nM SRC1-2 coactivator peptide, 3 hr room temperature. From the text:
The activity of compound of the invention can be determined by a co-activator recruitment by TR-FRET (time-resolved fluorescence resonance energy transfer) assay. In general, the assay is based on the interaction between N-terminally Six-Histidine-tagged-RORC2 ligand binding domain (6-His-RORC2 LBD), expressed in E. coli and purified by affinity chromatography, and biotin-coactivator peptide SRC1-2 (biotin-aminohexanoic acid-[…]-NH2; SEQ ID NO: 1) containing the LXXLL consensus domain which is responsible for receptor binding. This interaction is detected by addition of Europium labeled-anti-His antibody (Ex. 337 nm, Em. 620 nm, which binds to 6His) and Streptavidin-APC (Ex. 620 nm, Em. 665 nm, which binds to biotin). When receptor and coactivator are bound to each other, upon shining light at 337 nm on the sample, the Europium emits fluorescence that excites APC due to close proximity (FRET) and this signal is measured at 665 nm. Due to the long lasting fluorescence emission of Europium, the non-specific, short-lived fluorescence is time-resolved (TR) from the fluorescence of interest. Inhibitors of the interaction of receptor and coactivator peptide are detected by a decrease in TR-FRET signal.
Specifically, in one embodiment the aforementioned assay was performed as outlined below. The assay was carried out in black polystyrene. 384-well plates in a total assay volume of 50.5 μL. The assay buffer contained 50 mM TRIS-HCL pH 7.5, 1 mM NaCl, 2 mM MgCl2, 0.5 mg/mL bovine serum albumin, and 5 mM dithiothreitol. The final concentration of reagents was 6.3 nM RORC2 LBD, 200 nM SRC1-2, 50 nM streptavidin APC, 1 nM Europium-labeled anti-His antibody, and varying concentrations of compounds such that final concentration of DMSO is 1% (v/v). The assay steps were: (1) dispensing […] compound at 100× final concentration in DMSO (test wells) or DMSO only (control wells for no inhibition); and (2) dispensing 50 μL mixture of the other assay components including receptor (test wells) or excluding receptor (control wells for maximal inhibition).
Assay mixtures were incubated are room temperature for 3 hr and read in EnVision 2100 Multilabel Reader (PerkinElmer Life Sciences) at Excitation Filter 320, Emission Europium Filter 615, Emission APC Filter 665, Dichroic Mirror D400/D630.
TR-FRET signal was determined by calculating the ratio of 665 nm by 615 nm and […] values of compounds of the invention (Table 1) were determined by the non-linear regression analysis of dose response curves.
For orientation: In TR-FRET formats the signal depends on donor and acceptor labels being close together.

What is called pIC50 is the negative decadic logarithm of the IC50, by convention in mol/L. For `COc1c(NC(=O)c2ccc(F)c(C#N)c2)cnc2c1c(C1CCN(C(=O)C3CCCC3)CC1)cn2C` [Example 10, 3-cyano-N-(3-(1-(cyclopentanecarbonyl)piperidin-4-yl)-4-methoxy-1-methyl-1H-pyrrolo[2,3-b]pyridin-5-yl)-4-fluorobenzamide], the pIC50 in the experiment with human Th17 cells was 6.98; in experiment [1], 7.53.
In the same order, the values of `COc1c(NC(=O)c2cccc(C#N)c2)cnc2c1c(C1CCN(C(=O)c3cccc4c3CCC4)CC1)cn2C` [Example 7, 3-cyano-N-(3-(1-(2,3-dihydro-1H-indene-4-carbonyl)piperidin-4-yl)-4-methoxy-1-methyl-1H-pyrrolo[2,3-b]pyridin-5-yl)benzamide] are 7.55 and 8.33.
In the same order, the values of `COc1c(NC(=O)c2cccc(C#N)c2)cnc2c1c([C@@H]1CCN(C(=O)[C@H](C)C(C)(C)C)C(C)(C)C1)cn2C` [Example 26, 3-cyano-N-(3-((R)-2,2-dimethyl-1-((R)-2,3,3-trimethylbutanoyl)piperidin-4-yl)-4-methoxy-1-methyl-1H-pyrrolo[2,3-b]pyridin-5-yl)benzamide] are 8.19 and 7.98.
With `COc1c(NC(=O)c2cccc(C#N)c2)cnc2c1c(C1CCN(C(=O)C3CCCC3)C[C@@H]1C)cn2C` (stereo partly drawn) [Example 24, 3-cyano-N-(3-((3R,4R)-1-(cyclopentanecarbonyl)-3-methylpiperdin-4-yl)-4-methoxy-1-methyl-1H-pyrrolo[2,3-b]pyridin-5-yl)benzamide], the pIC50 is 7.60 in the experiment on human Th17 cells and 7.99 in experiment [1].
In the same order, the values of `COc1ccc(C(=O)Nc2cnc3c(c(C4CCN(C(=O)C5CCCCC5)CC4)cn3C)c2OC)cc1C#N` [Example 13, 3-cyano-N-(3-(1-(cyclohexanecarbonyl)piperidin-4-yl)-4-methoxy-1-methyl-1H-pyrrolo[2,3-b]pyridin-5-yl)-4-methoxybenzamide] are 8.02 and 7.81.
In the same order, the values of `COc1c(NC(=O)c2cccc(C#N)c2)cnc2c1c([C@@H]1CCN(C(=O)C3CCCC3)C(C)(C)C1)cn2C` [Example 31, (R)-3-cyano-N-(3-(1-(cyclopentanecarbonyl)-2,2-dimethylpiperidin-4-yl)-4-methoxy-1-methyl-1H-pyrrolo[2,3-b]pyridin-5-yl)benzamide] are 8.14 and 8.24.
Regarding `COc1c(NC(=O)c2ccc(SC)c(C#N)c2)cnc2c1c(C1CCN(C(=O)[C@H](C)C(C)(C)C)CC1)cn2C` [Example 35, (R)-3-cyano-N-(4-methoxy-1-methyl-3-(1-(2,3,3-trimethylbutanoyl)piperidin-4-yl)-1H-pyrrolo[2,3-b]pyridin-5-yl)-4-(methylthio)benzamide], the negative-log IC50 (pIC50) in the experiment on human Th17 cells was 7.90; in experiment [1], 8.49.
With `COc1c(NC(=O)c2cccc(C#N)c2)cnc2c1c([C@@H]1CCN(C(=O)[C@@H](C)C(C)(C)C)C(C)(C)C1)cn2C` [Example 34, 3-cyano-N-(3-((R)-2,2-dimethyl-1-((S)-2,3,3-trimethylbutanoyl)piperidin-4-yl)-4-methoxy-1-methyl-1H-pyrrolo[2,3-b]pyridin-5-yl)benzamide], the pIC50 is 7.64 in the experiment with human Th17 cells and 8.03 in experiment [1].
Consider `COc1ccc(C(=O)Nc2cnc3c(c(C4CCN(C(=O)[C@H](C)C(C)(C)C)CC4)cn3C)c2OC)cc1C#N` [Example 4, (R)-3-cyano-4-methoxy-N-(4-methoxy-1-methyl-3-(1-(2,3,3-trimethylbutanoyl)piperidin-4-yl)-1H-pyrrolo[2,3-b]pyridin-5-yl)benzamide], for which the values for the pIC50 (in the experiment on human Th17 cells; in experiment [1]) were 7.96 and 8.16, respectively.
On to `COc1ccc(C(=O)Nc2cnc3c(c([C@@H]4CCN(C(=O)C5CCCCC5)C(C)(C)C4)cn3C)c2OC)cc1C#N` [Example 32, (R)-3-cyano-N-(3-(1-(cyclohexanecarbonyl)-2,2-dimethylpiperidin-4-yl)-4-methoxy-1-methyl-1H-pyrrolo[2,3-b]pyridin-5-yl)-4-methoxybenzamide], for which the pIC50 in the experiment with human Th17 cells is 7.96; in experiment [1], 8.24.
In the case of `COc1c(NC(=O)c2cccc(C#N)c2)cnc2c1c(C1CCN(C(=O)c3c(C)cccc3F)CC1)cn2C` [Example 16, 3-cyano-N-(3-(1-(2-fluoro-6-methylbenzoyl)piperidin-4-yl)-4-methoxy-1-methyl-1H-pyrrolo[2,3-b]pyridin-5-yl)benzamide], the pIC50 in the experiment on human Th17 cells is 7.44; in experiment [1], 8.14.
Consider `COc1c(NC(=O)c2cccc(C#N)c2)cnc2c1c([C@@H]1[C@@H]3CC[C@H]1CN(C(=O)[C@H](C)C(C)(C)C)C3)cn2C` [Example 21, 3-cyano-N-(4-methoxy-1-methyl-3-((1R,5S,8R)-3-((R)-2,3,3-trimethylbutanoyl)-3-azabicyclo[3.2.1]octan-8-yl)-1H-pyrrolo[2,3-b]pyridin-5-yl)benzamide], for which the pIC50 in the experiment on human Th17 cells is 7.67.
On to `COc1ccc(C(=O)Nc2cnc3c(c([C@@H]4[C@@H]5CC[C@H]4CN(C(=O)C4CCCC4)C5)cn3C)c2OC)cc1C#N` [Example 22, 3-cyano-N-(3-((1R,5S,8r)-3-(cyclopentanecarbonyl)-3-azabicyclo[3.2.1]octan-8-yl)-4-methoxy-1-methyl-1H-pyrrolo[2,3-b]pyridin-5-yl)-4-methoxybenzamide], for which the negative logarithm of the IC50 (pIC50) with human Th17 cells is 7.64.
